The values that follow come from ChEMBL document CHEMBL1142108, “Carbamidocyclophanes A-E, chlorinated paracyclophanes with cytotoxic and antibiotic activity from the Vietnamese cyanobacterium Nostoc sp” (J Nat Prod, 2007).

The nature of experiment [1]: Cytotoxicity against human F1 cells after 48 hrs. The settings on record: F1, 48 h. Format: cell-based.
The next experiment has as its system Staphylococcus aureus. Kind of experiment: Antibacterial activity against Staphylococcus aureus ATCC 6538. The class given is functional.
The next experiment relates to MCF7. The experiment is described as follows: Cytotoxicity against MCF7 cells after 48 hrs. The class given is cell-based. The following applies: Homo sapiens, MCF7, 48 h.

Each structure is given as a SMILES string. In brackets after ≈: the same amount, converted by molar mass.

As a reminder, the IC50 is the concentration at which inhibition is half-maximal. A lower IC50 goes with greater potency. In general, MIC refers to the least concentration at which growth counts as inhibited. A low value points to a more susceptible organism. Consider `C[C@H]1CCCCC(CCCC(Cl)Cl)c2c(O)cc(cc2O)[C@H](OC(N)=O)[C@@H](C)CCCCC(CCCC(Cl)Cl)c2c(O)cc(cc2O)[C@@H]1OC(N)=O` (some centres undefined) [CARBAMIDOCYCLOPHANE A], for which the IC50 came out at 3.3 µM in experiment [1] and 0.86 µM in the experiment on MCF7. For the same compound, inhibition of growth in the experiment with Staphylococcus aureus (MIC) required 100 µM (≈ 80.9 µg/mL).

Regarding `C[C@H]1CCCCC(CCCCCl)c2c(O)cc(cc2O)[C@H](OC(N)=O)[C@@H](C)CCCCC(CCCC(Cl)Cl)c2c(O)cc(cc2O)[C@@H]1OC(N)=O` (some centres undefined) [CARBAMIDOCYCLOPHANE B], the IC50 is 4.2 µM in experiment [1] and 1.8 µM in the experiment on MCF7. Besides, the MIC against Staphylococcus aureus stood at 40 µM (≈ 31 µg/mL).

Consider `CCCCC1CCCC[C@H](C)[C@@H](OC(N)=O)c2cc(O)c(c(O)c2)C(CCCC(Cl)Cl)CCCC[C@H](C)[C@@H](OC(N)=O)c2cc(O)c1c(O)c2` (some centres undefined) [CARBAMIDOCYCLOPHANE C], for which the IC50 in experiment [1] was 5.1 µM; with MCF7, 2.2 µM. In the experiment on Staphylococcus aureus, inhibition of growth (MIC) required 60 µM (≈ 44.4 µg/mL).
